pIC50: −log10 of the molar value.
What was measured:
BT-474 cells = assay: IC50 in BT-474 cells, 72 hours incubation; assay type: cell-based
Protocol: (§1) The compounds described herein were synthesized as described in Example 1. The IC50 values were measured in MDA-MB-468, BT-474, and MCF-7 cells by incubating a series of concentrations of the corresponding compounds for 72 hours.
(§2) In Tables 1 and 2, “−” represents IC50 or EC50 values greater than 10 μM; “+” represents IC50 or EC50 values from greater than 1 μM to 10 μM; “++” represents IC50 or EC50 values from 0.1 μM to 1 μM; and “+++” represents IC50 or EC50 values less than 0.1 μM.

panel of 24 kinases = assay: Kinase-Glo Luminescent Kinase Assay, panel of 24 kinases; assay type: biochemical; conditions: 1000 nM, 50 nM and 5 nM, versus DMSO vehicle control
Protocol: (§3) SI-12 was also tested for its ability to disrupt kinase activity. The effects of the compound were tested on a panel of 24 kinases using a Kinase-Glo Luminescent Kinase Assay system (Promega; Madison, Wis.). SI-12 was tested, at concentrations of 1000 nM, 50 nM, and 5 nM, for its ability to interfere with recombinant kinases in the assay system. The amount of ATP to ADP conversion in the presence of SI-12 was compared to a DMSO vehicle control. The values shown in Table 3 represent the percentage of kinase activity compared to a DMSO vehicle control.
(§4) In Table 3, “−” represents less than 20% inhibition; “+” represents from 20% to 40% inhibition; “++” represents from 40% to 60% inhibition; and “+++” represents greater than 60% inhibition.

MCF-7 cells = assay: IC50 in MCF-7 cells, 72 hours incubation; assay type: cell-based
Protocol: as §1, §2

MAPKAPK2 = target: T1, MAPKAPK2 (Homo sapiens, UniProt P49137); assay: Kinase-Glo Luminescent Kinase Assay; assay type: biochemical
T1 construct: purchased Promega
Protocol: as §3, §4

CK1y1 = target: T2, CK1y1 (Homo sapiens, UniProt Q9HCP0); assay: Kinase-Glo Luminescent Kinase Assay; assay type: biochemical
T2 construct: purchased Promega
Protocol: as §3, §4

LCK = target: T3, LCK (Homo sapiens, UniProt P06239); assay: Kinase-Glo Luminescent Kinase Assay; assay type: biochemical
T3 construct: purchased Promega
Protocol: as §3, §4

ROCK1 = target: T4, ROCK1 (Homo sapiens, UniProt Q13464); assay: Kinase-Glo Luminescent Kinase Assay; assay type: biochemical
T4 construct: purchased Promega
Protocol: as §3, §4

FGFR1 = target: T5, FGFR1 (Homo sapiens, UniProt P11362); assay: Kinase-Glo Luminescent Kinase Assay; assay type: biochemical
T5 construct: purchased Promega
Protocol: as §3, §4

CHK1 = target: T6, CHK1 (Homo sapiens, UniProt O14757); assay: Kinase-Glo Luminescent Kinase Assay; assay type: biochemical
T6 construct: purchased Promega
T6 sequence (O14757 1-476): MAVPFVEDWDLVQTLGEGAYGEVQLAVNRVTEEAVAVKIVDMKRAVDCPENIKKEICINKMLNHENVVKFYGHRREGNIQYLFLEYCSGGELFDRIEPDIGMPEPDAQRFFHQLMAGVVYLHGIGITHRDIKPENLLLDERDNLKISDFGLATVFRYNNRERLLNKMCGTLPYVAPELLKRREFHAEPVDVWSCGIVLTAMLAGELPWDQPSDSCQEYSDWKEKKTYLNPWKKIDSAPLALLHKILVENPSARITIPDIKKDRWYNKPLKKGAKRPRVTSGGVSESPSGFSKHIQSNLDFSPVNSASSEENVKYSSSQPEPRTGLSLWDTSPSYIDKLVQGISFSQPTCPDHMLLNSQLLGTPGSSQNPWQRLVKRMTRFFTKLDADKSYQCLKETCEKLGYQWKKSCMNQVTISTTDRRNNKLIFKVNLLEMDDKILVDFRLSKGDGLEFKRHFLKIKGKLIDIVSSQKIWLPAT
Protocol: as §3, §4

CDK2/CyclinE1 = target: T7, CDK2/CyclinE1 (Homo sapiens, UniProt P24941); assay: Kinase-Glo Luminescent Kinase Assay; assay type: biochemical
T7 construct: purchased Promega
Protocol: as §3, §4

AKT1 = target: T8, AKT1 (Homo sapiens, UniProt P31749); assay: Kinase-Glo Luminescent Kinase Assay; assay type: biochemical
T8 construct: purchased Promega
Protocol: as §3, §4

[1] = test system: Panc-1-Luc pancreatic tumor; assay: Orthotopic pancreatic cancer mouse model (Panc-1-Luc); assay type: in vivo, SCID mice
Protocol: FIG. 3, Panels A-E show the therapeutic efficacy of SI-12 in an orthotopic pancreatic cancer mouse model. […] Data represent mean±SEM. *, P<0.05, **, P<0.01 by student t-test.
SI-12 was tested in pancreatic, lung, brain, and melanoma cancers. A representative example for pancreatic tumor treatment is described below. Panc-1 cells stably expressing firefly luciferase cells (Panc-1-Luc, 0.5×10^6 cells per mouse) were injected into the tail of pancreas of SCID mice (6-7 weeks). The mice were randomized into two groups based on luciferase imaging (n=8 per group). Eight days after tumor inoculation, the two groups were administered SI-12 (10 mg/kg, i.p. injection, once daily) or an equal volume of vehicle control five times per week. Tumor growth and systemic toxicity were monitored based on luciferase imaging and body weight weekly. The mice were sacrificed after eight weeks of treatment. […] At the end of the experiment, tumors were harvested and weighed. The average tumor weight in SI-12 treated mice was ˜30% of the vehicle treated counterparts (FIG. 3D).
To test whether SI-12 causes SRC-3 down-regulation in vivo, the SRC-3 levels in tumor tissues were measured by immunohistochemistry (IHC). Multiple tumor tissues (N>3) collected from both the control group and the SI-12 treated group were processed and immunohistochemically stained with an anti-SRC-3 antibody or an anti-Ki-67 antibody. […] Ki-67, a cell proliferation marker, was also immunochemically analyzed.

[2] = 10 mg/kg i.p. once daily, five times per week, eight weeks

T1 sequence (P49137 whole entry): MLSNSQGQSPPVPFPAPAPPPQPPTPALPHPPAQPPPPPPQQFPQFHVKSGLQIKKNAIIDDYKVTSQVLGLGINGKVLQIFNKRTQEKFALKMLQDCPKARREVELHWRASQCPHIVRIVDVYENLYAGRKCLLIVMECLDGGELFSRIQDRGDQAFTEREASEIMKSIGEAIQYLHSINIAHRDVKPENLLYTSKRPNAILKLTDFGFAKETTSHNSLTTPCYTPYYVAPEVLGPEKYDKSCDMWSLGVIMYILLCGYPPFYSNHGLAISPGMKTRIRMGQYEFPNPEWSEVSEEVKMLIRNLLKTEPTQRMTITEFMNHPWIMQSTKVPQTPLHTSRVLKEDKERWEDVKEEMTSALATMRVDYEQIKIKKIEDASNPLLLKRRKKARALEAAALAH
T4 sequence (Q13464 whole entry): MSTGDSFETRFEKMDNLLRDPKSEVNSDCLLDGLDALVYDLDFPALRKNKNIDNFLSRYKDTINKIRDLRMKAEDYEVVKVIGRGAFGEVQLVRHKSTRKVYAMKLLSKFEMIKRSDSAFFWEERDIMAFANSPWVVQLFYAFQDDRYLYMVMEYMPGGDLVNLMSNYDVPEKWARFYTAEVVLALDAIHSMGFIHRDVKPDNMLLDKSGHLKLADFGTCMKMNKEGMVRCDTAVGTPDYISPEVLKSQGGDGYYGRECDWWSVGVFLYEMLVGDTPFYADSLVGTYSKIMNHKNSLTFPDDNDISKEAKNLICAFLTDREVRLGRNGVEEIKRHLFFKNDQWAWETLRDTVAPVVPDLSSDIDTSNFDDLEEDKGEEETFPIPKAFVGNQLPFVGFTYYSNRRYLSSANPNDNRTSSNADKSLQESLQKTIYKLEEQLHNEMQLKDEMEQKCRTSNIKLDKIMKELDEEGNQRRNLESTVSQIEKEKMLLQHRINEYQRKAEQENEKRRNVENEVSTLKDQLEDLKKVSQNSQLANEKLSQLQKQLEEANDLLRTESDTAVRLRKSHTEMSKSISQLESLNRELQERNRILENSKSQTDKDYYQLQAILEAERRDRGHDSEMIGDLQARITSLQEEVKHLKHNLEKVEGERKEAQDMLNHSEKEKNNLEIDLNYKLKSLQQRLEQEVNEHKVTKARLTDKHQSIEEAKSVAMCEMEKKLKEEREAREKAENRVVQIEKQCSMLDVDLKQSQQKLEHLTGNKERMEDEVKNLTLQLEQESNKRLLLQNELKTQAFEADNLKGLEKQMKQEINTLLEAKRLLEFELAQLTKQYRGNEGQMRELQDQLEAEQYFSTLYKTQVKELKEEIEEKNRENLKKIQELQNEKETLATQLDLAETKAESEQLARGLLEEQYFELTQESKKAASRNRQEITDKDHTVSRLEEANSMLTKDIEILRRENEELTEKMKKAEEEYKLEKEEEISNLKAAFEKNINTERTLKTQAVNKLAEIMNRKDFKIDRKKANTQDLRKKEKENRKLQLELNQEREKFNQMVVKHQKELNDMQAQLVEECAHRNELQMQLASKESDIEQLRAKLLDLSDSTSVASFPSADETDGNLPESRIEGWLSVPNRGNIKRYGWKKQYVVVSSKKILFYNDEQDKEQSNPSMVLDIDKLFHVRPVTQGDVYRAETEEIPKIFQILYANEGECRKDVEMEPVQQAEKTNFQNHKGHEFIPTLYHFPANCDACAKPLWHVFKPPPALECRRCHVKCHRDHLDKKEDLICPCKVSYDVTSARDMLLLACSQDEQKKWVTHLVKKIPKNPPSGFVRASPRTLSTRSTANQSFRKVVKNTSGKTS
T8 sequence (P31749 whole entry): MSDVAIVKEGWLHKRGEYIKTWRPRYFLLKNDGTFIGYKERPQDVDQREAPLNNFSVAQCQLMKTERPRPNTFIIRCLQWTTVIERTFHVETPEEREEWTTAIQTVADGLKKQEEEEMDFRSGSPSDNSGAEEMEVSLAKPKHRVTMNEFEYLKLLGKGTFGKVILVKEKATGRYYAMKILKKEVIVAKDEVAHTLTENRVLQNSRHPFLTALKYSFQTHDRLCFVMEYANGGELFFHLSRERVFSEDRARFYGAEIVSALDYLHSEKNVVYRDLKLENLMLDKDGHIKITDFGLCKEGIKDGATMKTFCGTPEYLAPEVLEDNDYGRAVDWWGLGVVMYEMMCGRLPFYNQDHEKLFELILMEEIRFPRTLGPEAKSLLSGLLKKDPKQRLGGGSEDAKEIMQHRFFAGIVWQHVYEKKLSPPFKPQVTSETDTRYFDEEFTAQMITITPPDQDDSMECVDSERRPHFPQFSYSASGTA
T5 sequence (P11362 22-822): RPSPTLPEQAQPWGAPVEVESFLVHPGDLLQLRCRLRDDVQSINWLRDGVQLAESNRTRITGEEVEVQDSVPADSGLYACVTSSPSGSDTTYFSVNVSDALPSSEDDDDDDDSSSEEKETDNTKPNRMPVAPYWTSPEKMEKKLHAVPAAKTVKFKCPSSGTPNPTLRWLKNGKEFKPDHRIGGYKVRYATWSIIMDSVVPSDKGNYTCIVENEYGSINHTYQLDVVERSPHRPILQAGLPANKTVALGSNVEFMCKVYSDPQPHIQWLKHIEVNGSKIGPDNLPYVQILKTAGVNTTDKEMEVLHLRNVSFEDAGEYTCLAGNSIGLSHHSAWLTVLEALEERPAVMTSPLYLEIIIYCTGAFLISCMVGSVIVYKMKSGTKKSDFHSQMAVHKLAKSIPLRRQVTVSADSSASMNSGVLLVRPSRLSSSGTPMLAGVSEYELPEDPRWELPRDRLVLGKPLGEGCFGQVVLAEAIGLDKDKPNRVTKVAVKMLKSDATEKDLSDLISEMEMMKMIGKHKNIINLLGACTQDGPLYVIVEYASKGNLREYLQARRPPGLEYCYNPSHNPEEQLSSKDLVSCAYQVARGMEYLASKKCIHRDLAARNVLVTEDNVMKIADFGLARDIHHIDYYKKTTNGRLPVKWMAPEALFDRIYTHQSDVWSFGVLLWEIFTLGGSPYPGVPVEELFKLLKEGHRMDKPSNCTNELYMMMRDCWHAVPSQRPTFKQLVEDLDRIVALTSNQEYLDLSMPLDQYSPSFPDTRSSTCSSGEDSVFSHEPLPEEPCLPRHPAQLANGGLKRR
T3 sequence (P06239 whole entry): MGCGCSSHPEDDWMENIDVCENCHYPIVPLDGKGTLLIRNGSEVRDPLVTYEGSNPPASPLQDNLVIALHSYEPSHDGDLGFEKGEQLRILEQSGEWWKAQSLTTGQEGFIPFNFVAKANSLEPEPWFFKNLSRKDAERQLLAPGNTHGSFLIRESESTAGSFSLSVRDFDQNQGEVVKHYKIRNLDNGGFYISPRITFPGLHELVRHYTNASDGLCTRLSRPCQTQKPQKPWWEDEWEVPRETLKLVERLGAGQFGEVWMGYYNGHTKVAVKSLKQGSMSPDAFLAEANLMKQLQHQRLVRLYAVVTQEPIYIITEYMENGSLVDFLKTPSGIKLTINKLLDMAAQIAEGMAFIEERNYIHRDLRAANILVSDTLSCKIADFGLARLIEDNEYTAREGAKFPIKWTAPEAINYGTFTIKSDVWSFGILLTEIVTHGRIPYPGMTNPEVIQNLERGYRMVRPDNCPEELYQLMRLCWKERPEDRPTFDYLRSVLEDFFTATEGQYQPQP
T2 sequence (Q9HCP0 whole entry): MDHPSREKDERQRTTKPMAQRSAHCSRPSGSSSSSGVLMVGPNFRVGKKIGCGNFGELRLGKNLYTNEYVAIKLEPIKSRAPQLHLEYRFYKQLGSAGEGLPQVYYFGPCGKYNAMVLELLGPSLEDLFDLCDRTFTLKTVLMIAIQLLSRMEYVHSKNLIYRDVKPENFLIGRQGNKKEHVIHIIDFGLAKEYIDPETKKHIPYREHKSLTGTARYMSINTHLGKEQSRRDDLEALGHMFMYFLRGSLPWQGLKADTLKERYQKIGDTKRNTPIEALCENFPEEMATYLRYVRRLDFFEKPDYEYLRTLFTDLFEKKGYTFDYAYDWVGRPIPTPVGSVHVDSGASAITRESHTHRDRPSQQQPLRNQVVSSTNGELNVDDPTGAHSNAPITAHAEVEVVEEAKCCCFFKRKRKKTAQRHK

CC(=NNc1nc2cc(F)c(F)cc2n1C)c1ccc(F)cn1 [SI-12]
pIC50 (BT-474 cells): > 7.00 | effects on kinase activity, panel overall (panel of 24 kinases): minimal effects on kinase activity | pIC50 (MCF-7 cells): > 7.00 | MAPKAPK2 kinase inhibition (MAPKAPK2; 5 nM): − (less than 20% inhibition) | MAPKAPK2 kinase inhibition (MAPKAPK2; 50 nM): − (less than 20% inhibition) | MAPKAPK2 kinase inhibition (MAPKAPK2; 1000 nM): − (less than 20% inhibition) | CK1y1 kinase inhibition (CK1y1; 5 nM): − (less than 20% inhibition) | CK1y1 kinase inhibition (CK1y1; 50 nM): − (less than 20% inhibition) | CK1y1 kinase inhibition (CK1y1; 1000 nM): − (less than 20% inhibition) | LCK kinase inhibition (LCK; 5 nM): − (less than 20% inhibition) | LCK kinase inhibition (LCK; 50 nM): − (less than 20% inhibition) | LCK kinase inhibition (LCK; 1000 nM): − (less than 20% inhibition) | ROCK1 kinase inhibition (ROCK1; 5 nM): + (from 20% to 40% inhibition) | ROCK1 kinase inhibition (ROCK1; 50 nM): + (from 20% to 40% inhibition) | ROCK1 kinase inhibition (ROCK1; 1000 nM): + (from 20% to 40% inhibition) | FGFR1 kinase inhibition (FGFR1; 5 nM): + (from 20% to 40% inhibition) | FGFR1 kinase inhibition (FGFR1; 50 nM): − (less than 20% inhibition) | FGFR1 kinase inhibition (FGFR1; 1000 nM): − (less than 20% inhibition) | CHK1 kinase inhibition (CHK1; 5 nM): − (less than 20% inhibition) | CHK1 kinase inhibition (CHK1; 50 nM): − (less than 20% inhibition) | CHK1 kinase inhibition (CHK1; 1000 nM): − (less than 20% inhibition) | CDK2/CyclinE1 kinase inhibition (CDK2/CyclinE1; 5 nM): − (less than 20% inhibition) | CDK2/CyclinE1 kinase inhibition (CDK2/CyclinE1; 50 nM): − (less than 20% inhibition) | CDK2/CyclinE1 kinase inhibition (CDK2/CyclinE1; 1000 nM): − (less than 20% inhibition) | AKT1 kinase inhibition (AKT1; 5 nM): − (less than 20% inhibition) | AKT1 kinase inhibition (AKT1; 50 nM): − (less than 20% inhibition) | AKT1 kinase inhibition (AKT1; 1000 nM): − (less than 20% inhibition) | body weight loss [1, 2]: minimal body weight loss | pancreatic tumor growth (luciferase imaging) [1, 2]: significantly delayed pancreatic tumor growth | average tumor weight relative to vehicle treated counterparts ([1]; end of experiment, after eight weeks of treatment, 10 mg/kg i.p.): ~30% | Ki-67 positive cells in tumor tissues (IHC) ([1]; versus control group, anti-Ki-67 antibody): dramatically fewer Ki-67 positive cells | SRC-3 levels in tumor tissues (IHC) ([1]; versus vehicle treated control group, anti-SRC-3 antibody): significantly lower than the vehicle treated control group
